According to US20250101026A1, “Functionalized Allopurinol Derivatives for Treatment of Alzheimer’s Disease” (BOARD OF REGENTS OF THE UNIVERSITY OF NEBRASKA, priority 2022, published 2025):
“Also recorded” adds a separate entry of the source.

Experiments:
SH-SY5Y cells [1] = test: Cell viability of SH-SY5Y cells with compound alone; format: cell-based, human; conditions: up to 100 μM
Procedure: (§1) Cell Culture. The cell line SH-SY5Y was cultured in DMEM/F12 media supplemented with 10% fetal bovine serum, 1% penicillin-streptomycin and maintained as monolayer cultures in a humidified atmosphere containing 5% CO2 at 37° C.^42 All cell lines were authenticated via short tandem repeat analysis and tested for mycoplasma using the a commercial mycoplasma detection kit as per the manufacturer's instructions, showing no contamination. Where indicated, cells were also cultured in DMEM/low glucose media. All compounds were diluted to 20 mM solution in DMSO and were serially diluted in cell culture media for cell treatments to a final concentration range of 0.01 to 100 μM, maintaining the final DMSO concentration at less than 1%. Positive control compound HupA was serially diluted in a similar fashion as the synthesized compounds.
Cell Viability Assays. The SH-SY5Y cells were plated at a density of 50,000 cells/well in 96-well plates and allowed to adapt overnight in a humidified atmosphere containing 5% CO2 at 37° C. The cells were pretreated (24 hours) with the test compound and exchanged to a serum-free DMEM/low glucose media, prior to incubation with 25 μM of Aβ. Cell viability was measured after 48 hours using commercial MTS assay or lactate dehydrogenase (LDH) cytotoxicity assay. […]

SH-SY5Y cells [2] = test: Aβ-induced toxicity in SH-SY5Y cells, MTS assay; format: cell-based, human; conditions: 1 μM
Procedure: as §1
(§2) Amyloid Preparation. The peptide Aβ1-42, referred to as “Aβ”, was obtained from a commercial source. The oligomers of Aβ were prepared using an established method,^43 Aβ peptide was resuspended in 0.5 mM NaOH at a concentration of […] and stored at −80° C. For use in cell cultures, the stock solution was incubated at 37° C. for 5-7 days. Before use, the peptide was diluted to 25 μM in DMEM/low glucose media.
Cell Viability Assays. The SH-SY5Y cells were plated at a density of 50,000 cells/well in 96-well plates and allowed to adapt overnight in a humidified atmosphere containing 5% CO2 at 37° C. The cells were pretreated (24 hours) with the test compound and exchanged to a serum-free DMEM/low glucose media, prior to incubation with 25 μM of Aβ. Cell viability was measured after 48 hours using commercial MTS assay or lactate dehydrogenase (LDH) cytotoxicity assay.
Employing human neuroblastoma SH-SY5Y ‘neuron-like’ cells, known to express ABAD,^20 experimental conditions are described herein that result in reproducible loss of 65% cell viability upon treatment with 25 μM Aβ after 48-hour incubation (FIG. 4A). Compound 1 (AG18051) and its analog 14b were screened for toxic effects in the SH-SY5Y cell lines.
HupA at 10 μM concentration provided 74% protection from Aβ-induced toxicity. […] Again, synthesized compound 14b at 1 μM, afforded greater protection than HupA at 10 μM concentration.

SH-SY5Y cells [3] = test: Aβ-induced toxicity in SH-SY5Y cells, lactate dehydrogenase (LDH) release assay; format: cell-based, human; conditions: 1 μM, pretreated 24 hrs, then 25 μM Aβ 48 hrs
Procedure: as §1, §2
Cell Viability Assays. […] Cell viability was measured after 48 hours using commercial MTS assay or lactate dehydrogenase (LDH) cytotoxicity assay. […]

[4] = tested on: 5XFAD primary cortical neurons; test: Mitochondrial morphology (TOM20 staining) in 5XFAD primary cortical neurons; format: cell-based, mouse; conditions: 10 and 50 μM, 48 hours; compared with no treatment control 5XFAD neurons
Procedure: Immunofluorescent Microscopy and Image Analysis. Isolated primary mouse cortical neurons from the 5XFAD Alzheimer's Disease mouse model were cultured for 10 days and then treated with 14b at 10 or 50 μM for 48 hours. Primary neurons growing on the coverslips were washed three times with PBS and fixed with 4% PFA. After permeabilization with 0.5% Triton™ X-100 for 15 minutes, coverslips were blocked with 10% NGS for 30 min. Coverslips were rinsed with 1% NGS in PBS and incubated with anti-TOM20 antibody at 4° C. overnight. Coverslips were then rinsed with 1% NGS, blocked in 10% NGS for 10 min, and rinsed with 1% NGS. Coverslips were incubated with species-specific AlexaFluor® 488-conjugated Abs diluted in 1% NGS for 2 h at room temperature in the dark. Coverslips were rinsed 3× with PBS. Excess liquid was removed, and slides were coverslipped using Fluoromount-G™ mounting medium. Slides were imaged using a confocal microscope with 63x/1.4NA Oil objective. The acquired images were processed for background subtraction in Zen software. Mitochondrial length was calculated from single plane images. Mitochondrial length was defined as the Feret maximum.
To obtain proof-of-concept protective effect of 14b in an ex vivo mouse model of AD we isolated primary mouse cortical neurons from the 5XFAD Alzheimer's model mouse (FIGS. 6A-6C). […]

[5] = tested on: 5XFAD primary cortical neurons; test: Respiration measurements in 5XFAD cortical neurons; format: cell-based, mouse; conditions: 10 μM and 50 μM, 48 hours
Procedure: Respiration Measurements (5XFAD cortical neurons). Primary cortical neurons were plated on poly-D-lysine-coated Seahorse XF24 cell culture microplates at a density of 3×10^4 cells/well and cultured for 14 days. At DIV (day in vitro) 12, neurons were treated with indicated compound for 48 hours. On day of the experiment, cells were washed three times and pre-incubated for 1 h in Assay Media with 10 mM Glucose, 1 mM Pyruvate, and 2 mM L-Glutamine. Measurement of intact cellular respiration was performed using an analyzer and a commercial Mito Stress Test Kit. Respiration was measured under basal conditions, and in response to 1.5 μM oligomycin followed by the addition of the […] (FCCP, 1 μM) which induces maximal OCR (Oxygen Consumption Rate). Finally, respiration was stopped by adding the electron transport chain inhibitors rotenone and antimycin A (0.5 μM). Values were normalized to cellular protein levels.
To obtain proof-of-concept protective effect of 14b in an ex vivo mouse model of AD we isolated primary mouse cortical neurons from the 5XFAD Alzheimer's model mouse (FIGS. 6A-6C). 5XFAD neurons were cultured for 10 days and then treated with 14b at 10 or 50 μM for 48 hours and then stained with the mitochondrial outer membrane protein TOM20 to evaluate mitochondrial morphological changes (FIG. 6A). […]

O=C(C(c1ccccc1)n1cnc2[nH]ncc2c1=S)N1CCC(O)CC1 (stereo not shown) [Compound 14b, 1-(4-hydroxypiperidin-1-yl)-2-phenyl-2-(4-thioxo-1,4-dihydro-5H-pyrazolo[3,4-d]pyrimidin-5-yl)ethan-1-one]
toxicity to reduce cell viability (SH-SY5Y cells [1]): no toxicity; also recorded: non-toxic | rescue of Aβ-induced reduction of cell viability (MTS assay) (SH-SY5Y cells [2]): significantly rescued | protection of cell viability (MTS assay) (SH-SY5Y cells [2]; pretreated 24 hrs, then 25 μM Aβ 48 hrs): 82% | LDH release compared with Aβ treatment alone (SH-SY5Y cells [3]): significantly reducing LDH release; also recorded: significantly rescued | mitochondrial aspect ratio [4]: significantly rescued | mitochondrial length [4]: significantly rescued | mitochondrial respiration (oxygen consumption rate) rescue [5]: trend to rescue
